From ChEMBL document CHEMBL5715954, “Silencing c-Myc translation as a therapeutic strategy through targeting PI3Kδ and CK1ε in hematological malignancies” (Blood, 2017)

What was measured:
Parameters in all cases: scale not given: the % may be the effect or the level left
[1] = target: T1, Serine/threonine-protein kinase Sgk2 (Homo sapiens) (UniProt Q9HBY8); test: Inhibition of human SGK2 assessed as enzyme activity at 1 uM using KGSGSGRPRTSSFAEG as substrate preincubated for 20 mins followed by [gamma-33P]-ATP addition and measured after 120 mins by radiometric Hot-SpotSM Kinase assay relative to control
T1 sequence (whole entry): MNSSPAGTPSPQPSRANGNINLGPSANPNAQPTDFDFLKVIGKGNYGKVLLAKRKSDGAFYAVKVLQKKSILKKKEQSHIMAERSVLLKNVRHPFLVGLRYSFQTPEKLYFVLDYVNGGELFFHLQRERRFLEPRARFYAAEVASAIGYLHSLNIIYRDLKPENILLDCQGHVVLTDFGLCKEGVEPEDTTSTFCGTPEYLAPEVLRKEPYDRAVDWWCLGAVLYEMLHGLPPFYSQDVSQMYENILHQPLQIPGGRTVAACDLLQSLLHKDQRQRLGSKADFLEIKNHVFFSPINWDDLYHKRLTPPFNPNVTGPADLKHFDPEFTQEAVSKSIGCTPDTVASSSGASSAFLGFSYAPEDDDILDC

[2] = target: T2, Serine/threonine-protein kinase Nek3 (Homo sapiens) (UniProt P51956); test: Inhibition of human NEK3 assessed as enzyme activity at 1 uM using myelin basic protein as substrate preincubated for 20 mins followed by [gamma-33P]-ATP addition and measured after 120 mins by radiometric Hot-SpotSM Kinase assay relative to control
T2 sequence (whole entry): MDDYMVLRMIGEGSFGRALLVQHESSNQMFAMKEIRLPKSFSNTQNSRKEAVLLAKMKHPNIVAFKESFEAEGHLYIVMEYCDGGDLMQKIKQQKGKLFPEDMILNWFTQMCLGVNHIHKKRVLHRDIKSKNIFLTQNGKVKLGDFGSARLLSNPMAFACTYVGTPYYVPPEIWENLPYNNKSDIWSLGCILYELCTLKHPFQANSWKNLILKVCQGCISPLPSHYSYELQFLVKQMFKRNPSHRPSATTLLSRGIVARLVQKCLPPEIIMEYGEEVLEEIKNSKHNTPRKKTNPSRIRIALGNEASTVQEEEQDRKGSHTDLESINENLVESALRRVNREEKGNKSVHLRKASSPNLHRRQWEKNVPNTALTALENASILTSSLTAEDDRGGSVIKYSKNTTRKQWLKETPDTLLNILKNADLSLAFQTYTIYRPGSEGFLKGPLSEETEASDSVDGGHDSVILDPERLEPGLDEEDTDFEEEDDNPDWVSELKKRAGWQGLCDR

[3] = target: Serine/threonine-protein kinase pim-3 (Homo sapiens) (UniProt Q86V86); test: Inhibition of human PIM3 assessed as enzyme activity at 1 uM using RSRHSSYPAGT as substrate preincubated for 20 mins followed by [gamma-33P]-ATP addition and measured after 120 mins by radiometric Hot-SpotSM Kinase assay relative to control
[4] = target: T3, Serine/threonine-protein kinase D1 (Homo sapiens) (UniProt Q15139); test: Inhibition of human PKCmu assessed as enzyme activity at 1 uM using KKLNRTLSVA as substrate preincubated for 20 mins followed by [gamma-33P]-ATP addition and measured after 120 mins by radiometric Hot-SpotSM Kinase assay relative to control
T3 sequence (whole entry): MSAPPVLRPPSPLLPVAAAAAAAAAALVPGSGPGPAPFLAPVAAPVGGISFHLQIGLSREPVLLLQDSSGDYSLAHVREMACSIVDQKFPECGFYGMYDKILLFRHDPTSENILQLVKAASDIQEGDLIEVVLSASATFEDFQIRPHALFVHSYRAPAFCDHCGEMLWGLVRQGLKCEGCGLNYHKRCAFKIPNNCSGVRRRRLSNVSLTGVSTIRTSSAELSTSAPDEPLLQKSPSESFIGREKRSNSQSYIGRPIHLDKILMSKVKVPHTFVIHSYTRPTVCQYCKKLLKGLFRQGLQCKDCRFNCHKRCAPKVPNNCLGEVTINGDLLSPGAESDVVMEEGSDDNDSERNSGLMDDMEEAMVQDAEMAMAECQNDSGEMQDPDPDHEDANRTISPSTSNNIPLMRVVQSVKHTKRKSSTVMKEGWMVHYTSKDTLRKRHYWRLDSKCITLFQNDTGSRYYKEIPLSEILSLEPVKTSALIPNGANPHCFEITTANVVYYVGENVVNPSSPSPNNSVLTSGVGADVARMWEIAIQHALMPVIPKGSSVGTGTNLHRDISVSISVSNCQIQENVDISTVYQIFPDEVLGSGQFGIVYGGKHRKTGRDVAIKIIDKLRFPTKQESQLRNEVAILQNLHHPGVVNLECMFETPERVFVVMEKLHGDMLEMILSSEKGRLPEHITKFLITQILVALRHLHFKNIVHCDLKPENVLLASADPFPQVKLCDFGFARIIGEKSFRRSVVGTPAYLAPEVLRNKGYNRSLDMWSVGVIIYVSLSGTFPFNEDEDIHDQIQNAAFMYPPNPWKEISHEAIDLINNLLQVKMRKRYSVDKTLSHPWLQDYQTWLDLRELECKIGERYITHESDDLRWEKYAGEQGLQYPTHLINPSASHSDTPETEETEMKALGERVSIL

[5] = target: CDK2/Cyclin O (Homo sapiens) (UniProt P24941+P22674); test: Inhibition of human CDK2/cyclin O assessed as enzyme activity at 1 uM using Histone H1 as substrate preincubated for 20 mins followed by [gamma-33P]-ATP addition and measured after 120 mins by radiometric Hot-SpotSM Kinase assay relative to control; format: protein-complex assay
[6] = target: Serine/threonine-protein kinase tousled-like 2 (Homo sapiens) (UniProt Q86UE8); test: Inhibition of human TLK2 assessed as enzyme activity at 1 uM using casein as substrate preincubated for 20 mins followed by [gamma-33P]-ATP addition and measured after 120 mins by radiometric Hot-SpotSM Kinase assay relative to control
Chain of Serine/threonine-protein kinase tousled-like 2 (Homo sapiens) (Q86UE8 whole entry, looked up): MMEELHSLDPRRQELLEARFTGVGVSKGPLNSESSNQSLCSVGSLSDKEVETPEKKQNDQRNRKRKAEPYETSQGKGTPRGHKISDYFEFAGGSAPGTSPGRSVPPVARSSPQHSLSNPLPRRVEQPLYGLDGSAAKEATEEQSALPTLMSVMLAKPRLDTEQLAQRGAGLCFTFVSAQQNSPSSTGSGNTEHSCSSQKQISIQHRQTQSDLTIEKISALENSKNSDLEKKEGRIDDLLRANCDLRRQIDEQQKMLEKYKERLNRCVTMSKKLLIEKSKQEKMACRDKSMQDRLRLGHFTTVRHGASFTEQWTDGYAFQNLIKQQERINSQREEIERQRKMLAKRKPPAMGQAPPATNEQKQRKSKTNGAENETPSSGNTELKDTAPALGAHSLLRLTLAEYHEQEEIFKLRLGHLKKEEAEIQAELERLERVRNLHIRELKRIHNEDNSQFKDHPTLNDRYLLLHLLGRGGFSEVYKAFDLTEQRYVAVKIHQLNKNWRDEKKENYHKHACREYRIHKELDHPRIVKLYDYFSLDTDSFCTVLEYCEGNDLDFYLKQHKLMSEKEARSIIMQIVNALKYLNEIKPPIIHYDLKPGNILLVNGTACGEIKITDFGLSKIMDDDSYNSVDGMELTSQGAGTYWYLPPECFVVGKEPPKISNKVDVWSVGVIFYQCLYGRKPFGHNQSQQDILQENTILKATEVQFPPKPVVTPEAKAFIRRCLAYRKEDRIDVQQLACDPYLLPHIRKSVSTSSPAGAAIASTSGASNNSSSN

| SMILES | Activity [1] [%] | Activity [2] [%] | Activity [3] [%] | Activity [4] [%] | Activity [5] [%] | Activity [6] [%] |
| --- | --- | --- | --- | --- | --- | --- |
| C[C@H](Nc1ncnc2nc[nH]c12)c1cc2cccc(Cl)c2c(=O)n1-c1ccccc1 | 98.8 | 98.5 | 95.4 | 96.1 | 90.7 | 97.3 |
| CC[C@H](Nc1ncnc2[nH]cnc12)c1nc2cccc(F)c2c(=O)n1-c1ccccc1 | 91.9 | 93.9 | 104 | 92.3 | 92.8 | 94 |
| CC(C)Oc1ccc(-c2nn([C@@H](C)c3oc4ccc(F)cc4c(=O)c3-c3cccc(F)c3)c3ncnc(N)c23)cc1F [UMBRALISIB] | 90.9 | 101 | 102 | 92.7 | 92.9 | 96.3 |
